Experimental findings from patent US10513523B2, “Imidazopyrazines and pyrazolopyrimidines and their use as AMPA receptor modulators” (Janssen Pharmaceutica NV, priority 2015, dated 2019) are described below.

The experiment concerns the target GluA1o-γ8 (GRIA1o-CACNG8 fusion construct; TARP γ8 dependent AMPA receptor) (Homo sapiens (Human), UniProt P42261+Q8WXS5). Briefly: Calcium flux assay (FLIPR), inhibition of glutamate response of GluA1o-γ8 channel. It is filed as cell-based. As to conditions: HEK293 cells stably expressing GRIA1o-CACNG8 fusion; 15 μM glutamate; pIC50 = negative log of IC50 in molar; read-out: GluR1-γ8 (pIC50) (converted). From the text:
This assay was used to test compounds for their ability to inhibit TARP γ8 dependent AMPA receptor activity. The AMPA receptor is a non-selective cation channel activated by glutamate. Ionotropic glutamate receptors normally desensitize too rapidly to allow detectable calcium influx in a FLIPR assay (Strange et al. (2006). “Functional characterisation of homomeric ionotropic glutamate receptors GluR1-GluR6 in a fluorescence-based high throughput screening assay.” Comb Chem High Throughput Screen 9(2): 147-158). But, this desensitization is incomplete, and a substantial steady-state current remains in the sustained presence of glutamate (Cho et al. (2007). “Two families of TARP isoforms that have distinct effects on the kinetic properties of AMPA receptors and synaptic currents.” Neuron 55(6): 890-904).
An in vitro assay was used to determine the potency of test compounds as inhibitors of the glutamate response of the channel formed by GluA1o-γ8. To ensure a 1:1 stoichiometry of GluA10 and γ8 subunits in the expressed channel, a fusion of the cDNAs for GRIA1o and CACNG8 was used. Following Shi et al (2009) “The stoichiometry of AMPA receptors and TARPs varies by neuronal cell type.” Neuron 62(5): […]), the C-terminus of the cDNA for GRI1o was fused to the N-terminus of the cDNA for γ8. The linker sequence was […]. […] A clonal cell line in HEK293 cells stably expressing this construct, with a geneticin selection marker, was generated for use in this assay. Cell expressing the GRIA1o-CACNG8 fusion construct were grown in a monolayer in 96- or 384-well microtiter plates. They were washed with assay buffer (135 mM NaCl, 4 mM KCl, 3 mM CaCl2, 1 mM MgCl2, 5 mM glucose, 10 mM HEPES, pH 7.4, 300 mOs) using a Biotek EL405 plate washer. The cells were then loaded with a calcium-sensitive dye (Calcium-5 or Calcium-6, Molecular Devices) and the test compounds at a range of concentrations. Calcium flux following the addition of 15 μM glutamate was monitored using a Molecular Devices FLIPR Tetra.
The fluorescence in each well was normalized to the fluorescence of negative and positive control wells. […] The responses to glutamate as functions of the test compound concentrations were fitted to a four-parameter logistic function. The fitted parameter corresponding to the midpoint was taken to be the potency of inhibition of the compound.
Background: A change in cytosolic calcium serves as a functional read-out for many receptors and channels.

Chain of GluA1o-γ8 (GRIA1o-CACNG8 fusion construct; TARP γ8 dependent AMPA receptor) (P42261 other isoform, or with tags, fused parts or gaps): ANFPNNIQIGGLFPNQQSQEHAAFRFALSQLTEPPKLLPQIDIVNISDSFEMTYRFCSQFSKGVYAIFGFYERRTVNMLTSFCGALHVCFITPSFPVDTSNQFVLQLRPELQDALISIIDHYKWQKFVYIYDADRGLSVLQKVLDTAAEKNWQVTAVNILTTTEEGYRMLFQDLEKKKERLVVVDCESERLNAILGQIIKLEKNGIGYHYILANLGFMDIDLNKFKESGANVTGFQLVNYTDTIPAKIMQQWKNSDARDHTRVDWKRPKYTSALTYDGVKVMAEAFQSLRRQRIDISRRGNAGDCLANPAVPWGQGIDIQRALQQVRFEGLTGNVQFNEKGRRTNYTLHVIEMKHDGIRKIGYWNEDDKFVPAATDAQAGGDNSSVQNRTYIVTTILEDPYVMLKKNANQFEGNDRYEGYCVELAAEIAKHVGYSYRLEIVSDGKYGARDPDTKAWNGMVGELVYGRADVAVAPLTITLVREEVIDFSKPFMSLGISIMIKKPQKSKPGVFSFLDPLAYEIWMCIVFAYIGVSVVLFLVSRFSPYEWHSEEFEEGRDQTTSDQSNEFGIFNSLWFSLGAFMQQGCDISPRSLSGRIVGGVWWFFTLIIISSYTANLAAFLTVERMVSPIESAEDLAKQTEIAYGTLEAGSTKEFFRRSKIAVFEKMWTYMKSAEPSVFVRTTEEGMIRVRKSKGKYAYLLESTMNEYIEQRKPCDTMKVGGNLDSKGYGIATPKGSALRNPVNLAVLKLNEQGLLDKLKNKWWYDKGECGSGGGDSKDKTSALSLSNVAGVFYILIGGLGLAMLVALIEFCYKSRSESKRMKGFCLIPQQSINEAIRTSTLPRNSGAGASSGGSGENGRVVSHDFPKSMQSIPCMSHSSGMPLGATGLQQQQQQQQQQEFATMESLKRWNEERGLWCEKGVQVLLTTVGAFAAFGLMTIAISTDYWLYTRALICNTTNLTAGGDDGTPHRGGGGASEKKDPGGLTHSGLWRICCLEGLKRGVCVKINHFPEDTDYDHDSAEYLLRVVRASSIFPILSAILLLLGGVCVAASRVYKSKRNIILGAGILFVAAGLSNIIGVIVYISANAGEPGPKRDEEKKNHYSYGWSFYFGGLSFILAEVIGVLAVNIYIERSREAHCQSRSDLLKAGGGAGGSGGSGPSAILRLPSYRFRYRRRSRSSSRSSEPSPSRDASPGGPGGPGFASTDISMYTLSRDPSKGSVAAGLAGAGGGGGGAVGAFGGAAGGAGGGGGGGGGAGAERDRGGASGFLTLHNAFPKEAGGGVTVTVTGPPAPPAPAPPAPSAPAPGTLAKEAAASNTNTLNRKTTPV

Consider `O=c1[nH]c2ccc(-c3c(C4CC4)nn4cnc(C(F)(F)F)cc34)cc2s1` [Example 230, 6-[2-Cyclopropyl-5-(trifluoromethyl)pyrazolo[1,5-c]pyrimidin-3-yl]-3H-1,3-benzothiazol-2-one], for which the IC50 is 398 nM.

On to `COC1CN(c2nccc3c(-c4ccc5c(c4)CC(=O)N5)c(C4CCCC4)nn23)C1` [Example 195, 5-[2-Cyclopentyl-7-(3-methoxyazetidin-1-yl)pyrazolo[1,5-c]pyrimidin-3-yl]indolin-2-one], for which the IC50 is 316 nM.

In the case of `O=C(Nc1ccccc1)c1nc2c(N3CCOCC3)nccn2c1-c1ccc(O)cc1` [Example 138, 3-(4-Hydroxyphenyl)-8-morpholino-N-phenyl-imidazo[1,2-a]pyrazine-2-carboxamide], the IC50 is 20 nM.

`CN1CCN(c2nccn3c(-c4ccc(O)cc4)c(-c4ccc(F)cc4)nc23)CC1` [Example 6, 4-[2-(4-Fluorophenyl)-8-(4-methylpiperazin-1-yl)imidazo[1,2-a]pyrazin-3-yl]phenol]: the IC50 is 501 nM.

In the case of `CC1C(=O)N(C)CCN1c1nccn2c(-c3ccc4c(c3)CC(=O)N4)c(-c3ccc(F)cc3)nc12` (stereo not shown) [Example 111, 5-(8-(2,4-Dimethyl-3-oxopiperazin-1-yl)-2-(4-fluorophenyl)imidazo[1,2-a]pyrazin-3-yl)indolin-2-one], the IC50 was 1.58 nM.

Regarding `O=C1Cc2cc(-c3c(-c4ccc(F)c(F)c4)nc4c(N5CCOCC5)nccn34)ccc2N1` [Example 35, 5-[2-(3,4-Difluorophenyl)-8-morpholino-imidazo[1,2-a]pyrazin-3-yl]indolin-2-one], the IC50 was 0.501 nM.

For the compound `CS(=O)(=O)c1nccn2c(-c3ccc4c(c3)CC(=O)N4)c(-c3ccc(F)cc3)nc12` [Example 127, 5-[2-(4-Fluorophenyl)-8-methylsulfonyl-imidazo[1,2-a]pyrazin-3-yl]indolin-2-one], the IC50 is 398 nM.

On to `Cc1cnc(N2CCOCC2)n2nc(-c3ccccc3)c(-c3ccc4[nH]ncc4c3)c12` [Example 212, 4-[3-(1H-Indazol-5-yl)-4-methyl-2-phenyl-pyrazolo[1,5-c]pyrimidin-7-yl]morpholine], for which the IC50 was 0.0794 nM.

Regarding `O=C(Nc1ccccc1)c1nc2c(N3CCOCC3)nccn2c1-c1ccc2[nH]c(=O)[nH]c2c1` [Example 140, 8-Morpholino-3-(2-oxo-1,3-dihydrobenzimidazol-5-yl)-N-phenyl-imidazo[1,2-a]pyrazine-2-carboxamide], the IC50 is 20 nM.

With `O=C1Cc2cc(-c3c(C4CCCC4)nc4c(N5CCOCC5)nccn34)ccc2N1` [Example 57, 5-(2-Cyclopentyl-8-morpholino-imidazo[1,2-a]pyrazin-3-yl)indolin-2-one], the IC50 is 15.8 nM.

For the compound `CC(=O)N1CCN(c2nccn3c(-c4ccc5c(c4)CC(=O)N5)c(C(=O)c4ccccc4)nc23)CC1` [Example 158, 5-[8-(4-Acetylpiperazin-1-yl)-2-benzoyl-imidazo[1,2-a]pyrazin-3-yl]indolin-2-one], the IC50 is 5.01 nM.

With `Oc1ccc(-c2c(-c3ccccc3F)nc3c(N4CCOCC4)nccn23)cc1` [Example 84, 4-[2-(2-Fluorophenyl)-8-morpholino-imidazo[1,2-a]pyrazin-3-yl]phenol], the IC50 is 63.1 nM.

`Oc1ccc(-c2c(-c3ccc(F)cc3)nc3c(N4CCCC(F)(F)C4)nccn23)cc1` [Example 29, 4-[8-(3,3-Difluoro-1-piperidyl)-2-(4-fluorophenyl)imidazo[1,2-a]pyrazin-3-yl]phenol]: the IC50 is 31.6 nM.

Regarding `O=C1Nc2ccc(-c3c(-c4ccc(F)cc4)nc4c(N5CCOCC5)nccn34)cc2C1(F)F` [Example 136, 3,3-Difluoro-5-[2-(4-fluorophenyl)-8-morpholino-imidazo[1,2-a]pyrazin-3-yl]indolin-2-one], the IC50 is 398 nM.

For `O=C1Cc2cc(-c3c(-c4ccccc4)nc4c(C5=CCOCC5)nccn34)ccc2N1` [Example 131, 5-(8-(3,6-Dihydro-2H-pyran-4-yl)-2-phenylimidazo[1,2-a]pyrazin-3-yl)indolin-2-one], the IC50 was 7.94 nM.

`CC1(C)COCCN1c1nccn2c(-c3ccc4c(c3)CC(=O)N4)c(-c3ccc(F)cc3)nc12` [Example 50, 5-[8-(3,3-Dimethylmorpholin-4-yl)-2-(4-fluorophenyl)imidazo[1,2-a]pyrazin-3-yl]indolin-2-one]: the IC50 is 31.6 nM.

For the compound `CC(C)(C)c1nn2c(N3CCOCC3)nccc2c1-c1ccc2c(c1)CC(=O)N2` [Example 182, 5-(2-tert-Butyl-7-morpholino-pyrazolo[1,5-c]pyrimidin-3-yl)indolin-2-one], the IC50 was 63.1 nM.

Take `CC(=O)N[C@@H]1CCN(c2nccn3c(-c4ccc5c(c4)CC(=O)N5)c(-c4ccc(F)cc4)nc23)C1` (single isomer, unassigned) [Example 150]: the IC50 was 3.16 nM.

As to `COc1nccn2c(-c3ccc4[nH]c(=O)[nH]c4c3)c(-c3ccc(F)cc3)nc12` [Example 99, 5-[2-(4-Fluorophenyl)-8-methoxy-imidazo[1,2-a]pyrazin-3-yl]-1,3-dihydrobenzimidazol-2-one], the IC50 was 25.1 nM.

With `O=C1Cc2cc(-c3c(-c4ccc(F)cc4)nc4c(N5CC(Cl)C5)nccn34)ccc2N1` [Example 61, 5-[8-(3-Chloroazetidin-1-yl)-2-(4-fluorophenyl)imidazo[1,2-a]pyrazin-3-yl]indolin-2-one], the IC50 is 1.58 nM.

As for `O=C1Cc2cc(-c3c(-c4ccc(F)cc4)nc4c(N5CCOCC5)ncc(Cl)n34)ccc2N1` [Example 163, 5-[5-Chloro-2-(4-fluorophenyl)-8-morpholino-imidazo[1,2-a]pyrazin-3-yl]indolin-2-one], the IC50 was 0.126 nM.

`CC(C)(C)c1nn2cnccc2c1-c1ccc2c(c1)CC(=O)N2` [Example 165, 5-(2-tert-Butylpyrazolo[1,5-c]pyrimidin-3-yl)indolin-2-one]: the IC50 was more than 10000 nM.

In the case of `Oc1ccc(-c2c(Cc3cccc(F)c3)nc3c(N4CCOCC4)nccn23)cc1` [Example 96, 4-[2-[(3-Fluorophenyl)methyl]-8-morpholino-imidazo[1,2-a]pyrazin-3-yl]phenol], the IC50 was 20 nM.

`COc1nccc2c(-c3ccc4c(c3)CC(=O)N4)c(-c3ccccc3)nn12` [Example 206, 5-(7-Methoxy-2-phenyl-pyrazolo[1,5-c]pyrimidin-3-yl)indolin-2-one]: the IC50 is 398 nM.

Turning to `Nc1nccn2c(-c3ccc4[nH]c(=O)[nH]c4c3)c(-c3ccc(F)cc3)nc12` [Example 87, 5-[8-Amino-2-(4-fluorophenyl)imidazo[1,2-a]pyrazin-3-yl]-1,3-dihydrobenzimidazol-2-one], the IC50 is 398 nM.

As to `CS(=O)(=O)C1CN(c2nccn3c(-c4ccc5c(c4)CC(=O)N5)c(-c4ccc(F)cc4)nc23)C1` [Example 62, 5-[2-(4-Fluorophenyl)-8-(3-methylsulfonylazetidin-1-yl)imidazo[1,2-a]pyrazin-3-yl]indolin-2-one], the IC50 was 10 nM.

`O=C1Cc2cc(-c3c(C4CCCC4)nn4c(N5CC(F)C5)nccc34)ccc2N1` [Example 196, 5-[2-Cyclopentyl-7-(3-fluoroazetidin-1-yl)pyrazolo[1,5-c]pyrimidin-3-yl]indolin-2-one]: the IC50 is 158 nM.

For `O=c1[nH]c2ccc(-c3c(-c4ccc(F)cc4)nc4c(N5CCOCC5)ncc(Cl)n34)cc2[nH]1` [Example 82, 5-[5-Chloro-2-(4-fluorophenyl)-8-morpholino-imidazo[1,2-a]pyrazin-3-yl]-1,3-dihydrobenzimidazol-2-one], the IC50 was 0.316 nM.

Regarding `C[S+]([O-])c1nccn2c(-c3ccc4c(c3)CC(=O)N4)c(-c3ccc(F)cc3)nc12` (stereo not shown) [Example 128, 5-[2-(4-Fluorophenyl)-8-methylsulfinyl-imidazo[1,2-a]pyrazin-3-yl]indolin-2-one], the IC50 is 631 nM.

As to `Oc1ccc(-c2c(C3CCCCC3)nc3c(N4CCOCC4)nccn23)cc1` [Example 85, 4-(2-Cyclohexyl-8-morpholino-imidazo[1,2-a]pyrazin-3-yl)phenol], the IC50 is 200 nM.

Regarding `O=C(c1ccccc1)c1nc2c(N3CCOCC3)nccn2c1-c1ccc2c(c1)CS(=O)(=O)N2` [Example 159, [3-(2,2-Dioxo-1,3-dihydro-2,1-benzothiazol-5-yl)-8-morpholino-imidazo[1,2-a]pyrazin-2-yl]-phenyl-methanone], the IC50 was 7.94 nM.
